Tests used:
[1] = PET imaging studies in rhesus monkeys; conditions: rhesus monkey, in vivo, Distribution volume (VT), 1T model
Description: (§1) Experiments were performed in rhesus monkeys (Macaca mulatta). Rhesus monkeys were sedated using intramuscular (i.m.) injection of ketamine and glycopyrrolate approximately 2 hours before the PET scan and anesthesia was maintained with isoflurane (1.5%-2.5%) for the duration of the experiments. Baseline PET scans were obtained after intravenous (i.v.) injection of ^11C-3, ^18F-3, ^18F-4, ^18F-5, ^18F-10, ^18F-11, or ^18F-12.
(§2) Arterial blood samples were collected during the PET scans to calculate the plasma input function and to determine the unmetabolized parent fraction using the automatic column-switching HPLC system. Plasma free fraction (fp) was measured in triplicate using the ultrafiltration method.
(§3) PET scans of the brain were acquired using the FOCUS 220 PET scanner (Siemens Preclinical Solutions) with a reconstructed image resolution of approximately 1.5 mm. After a transmission scan, the radioligand was injected i.v. as a 3 min slow bolus by an infusion pump (PHD 22/2000; Harvard Apparatus). List-mode data were acquired for 120-180 min and binned into sinograms with an applicable number of frames. Scan data were reconstructed with a Fourier rebinning/filtered backprojection algorithm with corrections for attenuation, scanner normalization, radiation scatter, and randoms. Regions of interest were manually delineated on a single representative anatomic rhesus monkey MR image registered to a template image. The regions used in this study were amygdala, brain stem, caudate, centrum semiovale, cerebellum, cingulate cortex, frontal cortex, globus pallidus, insular cortex, nucleus accumbens, occipital cortex, pons, putamen, temporal cortex, and thalamus. Registration parameters were obtained to apply the regions of interest to individual PET scans, and regional time-activity curves were generated. Regional time-activity curves of the brain were analyzed with the 1-tissue-(1T) compartment model. Fit quality was compared with the 2-tissue model and the multilinear analysis method to calculate VT.
(§4) Typical injected radioactivity amount was 0.5-5 mCi per injection, with typical injected mass amount of 1-10 μg.
(§5) Specific binding to SV2A was further examined for ^11C-3, ^18F-3, and ^18F-11 in blocking studies, where levetiracetam or UCB-J ((R)-3) was i.v. infused before injection of the radiotracers.

SV2A = SV2A (Macaca mulatta, UniProt H9EQH8); test: PET imaging studies in rhesus monkeys; conditions: for Binding potential (BPND): from VT, centrum semiovale as reference region; for time to SUV peak in gray matter regions: rhesus monkey brain after i.v. injection; for Displacement of radiotracer binding by levetiracetam: levetiracetam 30 mg/kg i.v. infused 60 or 90 min post injection of the radiotracer
Sequence of SV2A (H9EQH8 1-742): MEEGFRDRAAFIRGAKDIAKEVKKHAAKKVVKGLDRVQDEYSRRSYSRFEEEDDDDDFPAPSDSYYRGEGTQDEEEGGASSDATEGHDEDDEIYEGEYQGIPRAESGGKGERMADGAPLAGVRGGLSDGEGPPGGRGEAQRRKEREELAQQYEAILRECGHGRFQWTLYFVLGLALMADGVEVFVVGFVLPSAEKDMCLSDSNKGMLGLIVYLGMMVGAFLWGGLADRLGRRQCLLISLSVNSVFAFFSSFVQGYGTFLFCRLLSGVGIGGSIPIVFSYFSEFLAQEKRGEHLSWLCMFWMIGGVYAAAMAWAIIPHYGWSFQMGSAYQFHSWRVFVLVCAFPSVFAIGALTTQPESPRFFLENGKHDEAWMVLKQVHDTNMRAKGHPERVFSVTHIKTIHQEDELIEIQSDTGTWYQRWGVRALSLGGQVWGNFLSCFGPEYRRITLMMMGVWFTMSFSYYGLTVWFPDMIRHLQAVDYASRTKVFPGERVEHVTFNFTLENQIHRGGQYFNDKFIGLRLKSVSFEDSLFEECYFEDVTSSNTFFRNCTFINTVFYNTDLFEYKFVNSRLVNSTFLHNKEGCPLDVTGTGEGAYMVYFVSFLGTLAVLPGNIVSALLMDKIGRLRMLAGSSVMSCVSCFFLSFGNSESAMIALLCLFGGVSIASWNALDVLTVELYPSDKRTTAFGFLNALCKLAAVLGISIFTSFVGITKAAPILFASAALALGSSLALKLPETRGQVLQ
Description: as §1, §2, §3, §4, §5

[2] = Plasma free fraction (fp) by ultrafiltration method; assay type: in vitro ADME, rhesus monkeys (Macaca mulatta); conditions: plasma (from arterial blood samples), rhesus monkey plasma

## O=C1CC(c2cc(F)c(F)c(F)c2)CN1Cc1ccncc1F (stereo not drawn) [^18F-10, 1-((3-fluoropyridin-4-yl)methyl)-4-(3,4,5-trifluorophenyl)pyrrolidin-2-one]
[1]; Amygdala
  Kp: 9.8
[1]; Brainstem
  Kp: 10.2
[1]; Caudate nucleus
  Kp: 13.8
[1]; Centrum semiovale
  Kp: 10.1
[1]; Cerebellum
  Kp: 12.3
[1]; Cingulate cortex
  Kp: 16
[1]; Frontal cortex
  Kp: 14.7
[1]; Globus pallidus
  Kp: 11.5
[1]; Hippocampus
  Kp: 11.3
[1]; Insular cortex
  Kp: 14.9
[1]; Nucleus accumbens
  Kp: 14.4
[1]; Occipital cortex
  Kp: 15.5
[1]; Pons
  Kp: 10.5
[1]; Putamen
  Kp: 14
[1]; Temporal cortex
  Kp: 14
[1]; Thalamus
  Kp: 12
SV2A; Amygdala
  Binding potential (BPND): −0.03
SV2A; Brainstem
  Binding potential (BPND): 0.01
SV2A; Caudate nucleus
  Binding potential (BPND): 0.37
SV2A; Cerebellum
  Binding potential (BPND): 0.22
SV2A; Cingulate cortex
  Binding potential (BPND): 0.59
SV2A; Frontal cortex
  Binding potential (BPND): 0.46
SV2A; Globus pallidus
  Binding potential (BPND): 0.14
SV2A; Hippocampus
  Binding potential (BPND): 0.12
SV2A; Insular cortex
  Binding potential (BPND): 0.48
SV2A; Nucleus accumbens
  Binding potential (BPND): 0.43
SV2A; Occipital cortex
  Binding potential (BPND): 0.53
SV2A; Pons
  Binding potential (BPND): 0.04
SV2A; Putamen
  Binding potential (BPND): 0.39
SV2A; Temporal cortex
  Binding potential (BPND): 0.39
SV2A; Thalamus
  Binding potential (BPND): 0.19
SV2A
  time to SUV peak in gray matter regions: ≤ 10 min
[2]
  fraction unbound: 0.52

## Cc1cnccc1CN1CC(c2cccc(F)c2)CC1=O (stereo not drawn) [^18F-11, 4-(3-Fluorophenyl)-1-((3-methylpyridin-4-yl)methyl)pyrrolidin-2-one]
[1]; Amygdala
  Kp: 8.7 ± 2.4
[1]; Brainstem
  Kp: 6.6 ± 2.9
[1]; Caudate nucleus
  Kp: 13.2 ± 2.6
[1]; Centrum semiovale
  Kp: 4.4 ± 1.5
[1]; Cerebellum
  Kp: 10.8 ± 2.6
[1]; Cingulate cortex
  Kp: 18.2 ± 2.2
[1]; Frontal cortex
  Kp: 17.4 ± 2.2
[1]; Globus pallidus
  Kp: 8.8 ± 1.8
[1]; Hippocampus
  Kp: 10.7 ± 2.8
[1]; Insular cortex
  Kp: 16.8 ± 2.6
[1]; Nucleus accumbens
  Kp: 16.4 ± 2.9
[1]; Occipital cortex
  Kp: 15.7 ± 2.7
[1]; Pons
  Kp: 6.4 ± 3.5
[1]; Putamen
  Kp: 13.6 ± 2.3
[1]; Temporal cortex
  Kp: 14.7 ± 2.5
[1]; Thalamus
  Kp: 13.2 ± 2.1
SV2A; Amygdala
  Binding potential (BPND): 1.05 ± 0.29
SV2A; Brainstem
  Binding potential (BPND): 0.53 ± 0.42
SV2A; Caudate nucleus
  Binding potential (BPND): 2.29 ± 0.88
SV2A; Cerebellum
  Binding potential (BPND): 1.59 ± 0.76
SV2A; Cingulate cortex
  Binding potential (BPND): 3.49 ± 1.52
SV2A; Frontal cortex
  Binding potential (BPND): 3.29 ± 1.40
SV2A; Globus pallidus
  Binding potential (BPND): 1.13 ± 0.61
SV2A; Hippocampus
  Binding potential (BPND): 1.58 ± 0.59
SV2A; Insular cortex
  Binding potential (BPND): 3.00 ± 1.21
SV2A; Nucleus accumbens
  Binding potential (BPND): 3.12 ± 1.26
SV2A; Occipital cortex
  Binding potential (BPND): 2.90 ± 1.50
SV2A; Pons
  Binding potential (BPND): 0.46 ± 0.51
SV2A; Putamen
  Binding potential (BPND): 2.21 ± 0.89
SV2A; Temporal cortex
  Binding potential (BPND): 2.63 ± 1.33
SV2A; Thalamus
  Binding potential (BPND): 2.18 ± 0.77
SV2A
  Displacement of radiotracer binding by levetiracetam: reduced the binding of these tracers to a significant extent
  time to SUV peak in gray matter regions: ≤ 10 min
SV2A; levetiracetam (30 mg/kg) or UCB-J (150 μg/kg) i.v. 10 min before radiotracer injection
  Uptake of radiotracer in blocking studies: reduced to background levels
[2]
  fraction unbound: 0.42 ± 0.02

## Cc1cnccc1CN1CC(c2cc(F)cc(F)c2)CC1=O (stereo not drawn) [^18F-5, 4-(3,5-Difluorophenyl)-1-((3-methylpyridin-4-yl)methyl)pyrrolidin-2-one]
[1]; Amygdala
  Kp: 20.5 ± 6
[1]; Brainstem
  Kp: 15 ± 4
[1]; Caudate nucleus
  Kp: 31.9 ± 4.8
[1]; Centrum semiovale
  Kp: 8.3 ± 2.4
[1]; Cerebellum
  Kp: 26.1 ± 6.5
[1]; Cingulate cortex
  Kp: 45 ± 9.2
[1]; Frontal cortex
  Kp: 43 ± 8.1
[1]; Globus pallidus
  Kp: 19.3 ± 2.4
[1]; Hippocampus
  Kp: 27.3 ± 4
[1]; Insular cortex
  Kp: 42.3 ± 9.1
[1]; Nucleus accumbens
  Kp: 41.9 ± 7.8
[1]; Occipital cortex
  Kp: 39.3 ± 10.7
[1]; Pons
  Kp: 14.9 ± 4.1
[1]; Putamen
  Kp: 32.8 ± 5.2
[1]; Temporal cortex
  Kp: 37.9 ± 9.4
[1]; Thalamus
  Kp: 32.7 ± 1.9
SV2A; Amygdala
  Binding potential (BPND): 1.70 ± 1.51
SV2A; Brainstem
  Binding potential (BPND): 0.59 ± 0.57
SV2A; Caudate nucleus
  Binding potential (BPND): 2.09 ± 1.37
SV2A; Cerebellum
  Binding potential (BPND): 2.16 ± 0.15
SV2A; Cingulate cortex
  Binding potential (BPND): 4.49 ± 0.50
SV2A; Frontal cortex
  Binding potential (BPND): 4.26 ± 0.57
SV2A; Globus pallidus
  Binding potential (BPND): 1.04 ± 0.09
SV2A; Hippocampus
  Binding potential (BPND): 2.36 ± 0.51
SV2A; Insular cortex
  Binding potential (BPND): 4.16 ± 0.42
SV2A; Nucleus accumbens
  Binding potential (BPND): 3.09 ± 2.04
SV2A; Occipital cortex
  Binding potential (BPND): 3.75 ± 0.11
SV2A; Pons
  Binding potential (BPND): 0.80 ± 0.03
SV2A; Putamen
  Binding potential (BPND): 3.03 ± 0.55
SV2A; Temporal cortex
  Binding potential (BPND): 3.60 ± 0.22
SV2A; Thalamus
  Binding potential (BPND): 3.08 ± 0.96
SV2A
  Displacement of radiotracer binding by levetiracetam: reduced the binding of these tracers to a significant extent
  time to SUV peak in gray matter regions: slower
[2]
  fraction unbound: 0.42 ± 0.03

— patent US11518754B2, “Radiolabeled pharmaceuticals and methods of making and using same” (YALE UNIVERSITY, priority 2017, dated 2022)
